The text below walks through data of patent US20100179130A1, “USE OF PIPERINE AND DERIVATIVES THEREOF FOR THE THERAPY OF NEUROLOGICAL CONDITIONS” (SYNGIS Bioscience GmbH & Co. KG, priority 2007, published 2010).

The conditions of data set [1]: cited from earlier work.
The conditions of data set [2]: oral, approximately 5 to 20 mg daily, human patients; cited from earlier work.
The subject of a further data set is neural stem cells. Briefly: In vitro differentiation assay on adult neural stem cells (beta-III-tubulin promoter firefly/Renilla dual luciferase reporter). The format is cell-based, rat. From the text: The neuroregenerative effect of the compounds according to the present invention can be assayed in vitro by measuring their stimulation of the differentiation of neural stem cells. Therefore, adult neural stem cells have to be isolated and subsequently cultivated in a suitable culture medium. After several passages in vitro the stem cells have to be co-transfected with a DNA construct coding for two discriminable reporter proteins one of them under the control of a constitutive promoter and the other under the control of a beta-III-tubulin promoter. The beta-III-tubulin promoter is induced during the process of neural stem cell differentiation; therefore the reporter protein under the control of this promoter serves as a marker for the stem cell differentiation in such an in vitro dual reporter assay (Schneider et al., J Clin Investigation 2005; 115:2083-2098). The person skilled in the art knows several suitable constitutive promoters such as the SV40-promoter, the TK-promoter, or the CMV-promoter. As discriminable reporter proteins for such a dual reporter assay one can use discriminable luciferases such as firefly luciferase and Renilla luciferase. The transfected cells have to be incubated with the test compound and with a positive and negative controls for normalization and background correction. As a positive control compound one can use retinoic acid (Guan et al., Cell Tissue Res. 2001; 305:171-176; Jacobs et al., Proc. Natl. Acad. Sci. USA 2006; 103:3902-3907), a suitable negative control is the sham treatment of the cells. The neroregenerative activity of the test compound is determined as the ratio of the signal of the beta-III-tubulin promoter controlled reporter versus the signal of the constitutively expressed reporter and is expressed as fold from the control. This assay is suitable to assess the neuroregenerative activity of piperine and derivatives thereof, but also can be used to screen for other potential neuroregenerative compounds. Preferably, such a screening can be used to test compounds which are already known to be suitable as a medicament in terms of its toxicology, bioavailability, solubility, stability etc.
Neural stem cells were isolated from the subventricular zone of 4 week-old male Wistar rats as described (Maurer et al, Proteome Sci. 2003; 1:4). Cells were cultivated in Neurobasal medium (Invitrogen) supplemented with B27 (Invitrogen), 2 mM L-glutamine, 100 units/ml penicillin, 100 units/ml streptomycin, 20 ng/ml […] (EGF), 20 ng/ml fibroblast growth factor-2 (FGF-2), and 2 μg/ml heparin. Once a week the neural stem cells were passaged and experiments were performed after 4 weeks in vitro. For DNA transfection, the cells were dissociated and plated on poly-L-ornithin/laminin-coated 96-well plates at a density of 50.000 cells/well. Cotransfection with the pGL3-p-βIII-tubulin vector (100 ng/well) and the pRL SV40 vector (100 ng/well) was carried out according to the FuGene6 Transfection protocol (Roche). The pRL SV40 vector (Promega) served as an internal control vector.
To amplify the class III β-tubulin gene promoter (fragment −450-+54), rat genomic DNA was used as a template for PCR (Dennis et al., Gene 2002; 294:269-277). The amplified fragment was inserted into the Mlu I/Xho I site of the pGL3-Basic firefly luciferase reporter vector (Promega) to generate the pGL3-p-βIII-tubulin experimental vector.
After overnight incubation, the plate was decanted and given in 8-fold replicates fresh medium containing piperine (Sigma) or vehicle. As a positive control for in vitro differentiation, stem cells were treated by adding 1 μM retinoic acid (Sigma) to the medium missing the mitogens.
After 48 hrs, the cells were harvested to prepare the cellular extracts for luciferase assay following the directions of the manufacturer (Promega). […]

In another data set the test system is rat MCAO model. The data set can be described thus: Rat MCAO (filament) model for stroke, infarct volume by TTC staining.
The subject of data set [3] is carageenan-induced rat paw edema. The settings on record: in vivo; cited from earlier work.
In a further data set the test system is mice. The conditions noted are these: cited from earlier work.
The conditions of data set [4]: in vivo; cited from earlier work.
For data set [5] the following is noted: cited from earlier work. The source holds these as a separate data set.
In data set [6] the test system is motoneural cell line NSC-34. Briefly: Anti-apoptosis assay on motoneural cell line, staurosporine induced apoptosis, Caspase-Glo 3/7. The format is cell-based. The settings on record: compound 1 μM in the presence of staurosporine 0.1 μM. As for the experimental part:
Instead of the SH-SY5Y cells used in Example 3 and 4, this analysis was performed with motoneural cell line NSC-34. […] Incubation with staurosporine (SP; 0.1 μM) alone served as positive control and incubation with vehicle served as negative control. The degree of apoptosis relative to the staurosporine control is shown in FIG. 4 (vehicle (sham): 6%; staurosporine (SP): 100%; piperine plus staurosporine: 70%; derivative B plus staurosporine: 55%; derivative E plus staurosporine: 75%; derivative G plus staurosporine: 76%; derivative K plus staurosporine: 83%; derivative S plus staurosporine: 77%; derivative U plus staurosporine: 71%).

The structures appear in SMILES notation.

Turning to `O=C(/C=C/C=C/c1ccc2c(c1)OCO2)N1CCCCC1` [Piperine, (E,E)-1-[5-(1,3-benzodioxol-5-yl)-1-oxo-2,4-pentadienyl]piperidine], the “maximum concentration in rat brain tissue” value in [1] (i.v. bolus of 50 mg/kg) is listed as “about 4 μg/ml”. In addition, in data set [1] (rat, in vivo), the “passage of the blood-brain-barrier” value is “passes the intact blood-brain-barrier”. For the same molecule, the tolerability result in data set [2] is recorded as “well tolerated”. Also, in the data set with neural stem cells (0.2 μM up to 25, 50 or 100 μM, compared with sham and 1 μM retinoic acid), the “differentiation of neural stem cells to neurons, dose dependence” value is reported as “significantly stimulates”. Besides, the fold induction at 1 µM with neural stem cells (Rattus norvegicus, Neural stem cell, 1 μM final compound concentration, in comparison to sham treatment, read-out: Stimulation factor for differentiation of neural stem cells) came to 2.1. Moreover, the “total edema-corrected infarct size” value with rat MCAO model (10 mg/kg i.v. 30 min after onset of occlusion, 24 h, mean ± SEM, n=30, p=0.031 vs vehicle) was 151±17 mm^3. Besides, the “edema-corrected infarct volume, subcortical areas” value with rat MCAO model (10 mg/kg i.v. 30 min after onset of occlusion, 24 h, mean ± SEM, not statistically significant) is reported as 78±6 mm^3. In addition, the “edema-corrected infarct volume, cortex” value with rat MCAO model (10 mg/kg i.v. 30 min after onset of occlusion, 24 h, mean ± SEM, p=0.018 vs vehicle) was 73±14 mm^3. Also, in the data set on rat MCAO model (10 mg/kg i.v., rat), the “tolerability of the treatment” value was “well tolerated”. The anti-inflammatory activity entry in data set [3] is “significant anti-inflammatory activity”. The “seizure activity induced by L-glutamate, N-methyl-D-aspartate or guanidinosuccinate” value with mice is “did not significantly block seizure activity”. Besides, the “clonic convulsions induced by kainate” value in the data set on mice (injected intra-peritoneally) is “inhibited clonic convulsions”. Moreover, the “time of peak blood levels after dosing” value in data set [4] was 1 to 2 h. For the same molecule, the solubility in water result in data set [5] is “essentially insoluble in water”. For the same molecule, the “degree of apoptosis relative to the staurosporine control” value in data set [6] is listed as 70%.
